In assay [1] the target is T1, PLCγ1 cSH2 (Homo sapiens, UniProt P19174).
T1 construct: cSH2 (668–790): 166 ± 30 nM; thioredoxin (pETM22 fusion, purified on Ni column) (N, cleaved yes); made in house; host or cells: E. coli BL21(DE3)
Briefly: 1H,15N HSQC NMR titration, PLCγ1 cSH2. The conditions noted are these: 1H-15N HSQC titration, 600 MHz, 298 K, 100 μM protein, 100 mM MES, 150 mM NaCl, 3 mM TCEP, pH 6.5. In kind it is binding. As for the experimental part: Fig 5 Affinity of pK15 peptide for PLCγ1 tSH2 or individual SH2 domains. (A) Binding curves of several PLCγ1 fragments in the presence of 200 nM 5,6-FAM-labelled pK15 (12mer). All measurements were performed in triplicate. […] (B and C) Overlay of ^1H,^15N HSQC NMR spectra of nSH2 (B) and cSH2 (C) alone (in yellow) and in the presence of 2 molar equivalents of the pK15 12mer peptide (blue), measured with a 600 MHz spectrometer at 298 K. The protein concentration was 100 μM and the buffer contained 100 mM MES, 150 mM NaCl, 3 mM TCEP, pH 6.5. (D and E) Excerpts from ^1H-^15N HSQC spectra of nSH2 (D) and cSH2 (E) upon addition of increasing concentrations of the pK15 12mer peptide.
Next, we used Nuclear Magnetic Resonance (NMR) spectroscopy to further compare the interaction of the phosphorylated pK15 12mer to the isolated nSH2 and cSH2 domains (Fig 5B–5E). We recorded ^1H-^15N HSQC spectra of each of the two domains in the presence of increasing concentrations of the pK15 peptide. […] In light of this, it is conceivable that the preference of pK15 CT for cSH2 in vivo may be determined by kinetic rather than thermodynamic factors.
NMR experiments were recorded at 298 K on a 600-MHz Bruker Avance III-HD spectrometer equipped with an inverse HCN cryogenic probehead (nitrogen-cooled) and running Topspin 3.2 software. […] NMR data were processed in Topspin and analysed in CcpNmr Analysis v2.4 [74].

Assay [2] concerns PLCγ1 SA R586L+R694L. Briefly: GST-pulldown, PLCγ1 SA double mutant. It counts as binding. The conditions noted are these: phosphorylated; HEK 293T. How it is done: Fig 3 Contribution of individual PLCγ1 SH2 domains to the interaction with phosphorylated pK15. The pK15 CT fused to GST, its Y^481F mutant, or GST alone were bound to glutathione beads, phosphorylated in vitro (+) or left unphosphorylated (-), and a GST pulldown was performed 32h after transfection into HEK-293T cells of expression vectors for S-tagged full-length PLCγ1 (FL) (A) or PLCγ1 SA (B) containing the indicated mutations. (C) pK15 CT WT, its Y^481F mutant or GST were bound to glutathione beads, phosphorylated in vitro (+) or left unphosphorylated (-), and used for a GST pulldown assay 32h after transfecting HEK 293T cells with expression vectors for S-tagged individual PLCγ1 nSH2 or cSH2 domains. […]
HEK293T cells were washed once with cold PBS 30 hours after transfection, lysed in IP buffer (50 mM Tris pH7.6, 60 mM NaCl, 6.25 mM EDTA, 1% (v/v) glycerol, 0.04% (v/v) NP-40) on ice for 30 minutes, sonicated shortly and cleared by centrifugation for 10 minutes at 20.000g, 4°C. […] Beads were then washed 5 times in 500 μl IP buffer (or for purified proteins IP buffer with 200 mM NaCl), suspended in 10 μl of 5x Laemmli sample buffer (60 mM Tris pH6.8, 24% (v/v) glycerol, 2% (v/v) SDS, 5% (v/v) β-mercaptoethanol, 0.01% Bromphenol Blue) and analysed by western blot.

This is an account of results in paper PMC8244865, “Recruitment of phospholipase Cγ1 to the non-structural membrane protein pK15 of Kaposi Sarcoma-associated herpesvirus promotes its Src-dependent phosphorylation” (PLoS Pathogens, 2021).

T1 sequence (P19174 668-790): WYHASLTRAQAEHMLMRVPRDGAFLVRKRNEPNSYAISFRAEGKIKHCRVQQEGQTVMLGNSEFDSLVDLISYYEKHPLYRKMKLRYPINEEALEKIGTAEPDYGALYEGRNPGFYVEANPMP

With “DDLpYEEVLFPRN [pK15 12mer, phosphorylated peptide representing the last 12 amino acids of pK15 CT (DDLp…)]”, in assay [1], the NMR exchange regime result is “fast exchange regime”.

B1: pK15 CT^WT: pK15 cytoplasmic tail fused to GST at its N-terminal end, phosphorylated in vitro by Src (protein)
chain: SQLLNEVELQEVNRDPPNVFGYASILVSGAEESREPSPQPDQSGMSILRVDGGSAFRIDTAQAATQPTDDLYEEVLFPRN
modifications: tyrosine-phosphorylated in vitro by Src; sites not stated for this construct; left off: GST, N-terminal, kept
Take B1: the “binding of double mutant (GST-pulldown)” value in assay [2] is on record as “completely eliminated the binding”.
